This is an account of results in US10414811B2, “Protease-resistant lipidated GLP-1 analogs” (MEDIMMUNE LIMITED, priority 2015, dated 2019).

Read-outs that look alike come from different tables or passages of the source. Numbered stars: 1 amine (or outer) side, 2 acyl side, 3 side chain; on linkers, the order of the positions; unused ones are H or OH. Square brackets hold non-standard residues; d marks the D form. Side chains are listed from the residue outwards. Peptide text beside a SMILES is read from it. * marks the point of attachment. C18 diacid = O=C(O)CCCCCCCCCCCCCCCCC(=O)*; γGlu = O=C(O)[C@H](CCC(=O)[*:2])N[*:1]; Palmitoyl = CCCCCCCCCCCCCCCC(=O)*; αMeF = C[C@](N)(Cc1ccccc1)C(=O)O; αMeK = C[C@](N)(CCCCN)C(=O)O; αMeS = C[C@](N)(CO)C(=O)O; AEEA = NCCOCCOCC(=O)O; Aib = CC(C)(N)C(=O)O

Holding throughout (type): cell-based
Assay [1] addresses T1, human glucagon receptor (GCGR) (Homo sapiens, UniProt P47871).
T1 construct: expressed in transfected cells
The assay can be described thus: cAMP assay, human GCGR cells. Conditions: cAMP assay. An outline of the steps:
(§1)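 Peptide-stimulated cAMP measured by two-step HTRF after a 30 min room-temperature incubation with receptor-expressing cells (hGLP-1R, hGIPR at 1×10^5 cells/ml; hGCGR at 2×10^5 cells/ml). Duplicate dilutions; EC50 from 4-parameter logistic fit of % Delta F.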
Background: Changes in cAMP serve as a functional read-out for many G protein-coupled receptors.

For assay [2], the target named is T2, human glucose-dependent insulinotropic peptide receptor (GIPR) (Homo sapiens, UniProt P48546).
T2 construct: expressed in transfected cells
T2 sequence (P48546 22-466): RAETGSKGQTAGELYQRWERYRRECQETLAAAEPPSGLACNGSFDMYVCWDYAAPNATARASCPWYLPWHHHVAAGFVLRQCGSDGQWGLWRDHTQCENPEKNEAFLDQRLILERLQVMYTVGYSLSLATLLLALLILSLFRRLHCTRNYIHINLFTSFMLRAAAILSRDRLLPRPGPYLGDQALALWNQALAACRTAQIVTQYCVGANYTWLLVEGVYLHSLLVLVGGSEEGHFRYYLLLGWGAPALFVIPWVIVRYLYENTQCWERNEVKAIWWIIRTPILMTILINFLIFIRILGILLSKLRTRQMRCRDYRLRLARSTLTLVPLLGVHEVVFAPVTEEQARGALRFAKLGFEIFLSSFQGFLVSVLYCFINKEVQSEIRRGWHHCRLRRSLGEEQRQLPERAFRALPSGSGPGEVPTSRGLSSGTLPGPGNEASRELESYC
The assay can be described thus: cAMP assay, human GIPR cells. Conditions: cAMP assay. An outline of the steps:
as §1

In another assay the target is T3, GLP-1R (INS1e assay) (Rattus norvegicus, UniProt P32301).
T3 construct: endogenous in cells; host or cells: INS-1E cells
T3 sequence (P32301 22-463): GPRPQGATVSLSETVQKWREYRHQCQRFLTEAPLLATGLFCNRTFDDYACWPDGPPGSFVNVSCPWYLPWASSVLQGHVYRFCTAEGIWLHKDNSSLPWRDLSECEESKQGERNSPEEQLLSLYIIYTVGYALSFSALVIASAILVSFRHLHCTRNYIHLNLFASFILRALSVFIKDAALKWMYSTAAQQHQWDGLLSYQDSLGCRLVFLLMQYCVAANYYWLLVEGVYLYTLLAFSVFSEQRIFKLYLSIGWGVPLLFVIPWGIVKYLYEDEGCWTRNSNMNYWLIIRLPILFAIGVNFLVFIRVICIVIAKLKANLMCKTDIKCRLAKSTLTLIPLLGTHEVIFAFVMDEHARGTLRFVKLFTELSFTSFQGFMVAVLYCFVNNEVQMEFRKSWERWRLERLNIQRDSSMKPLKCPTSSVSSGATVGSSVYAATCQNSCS
The assay can be described thus: INS1e assay, cAMP activity at GLP-1R. Particulars: mono-lipidated peptides. Put shortly: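 cAMP was quantified by two-step HTRF, using anti-cAMP cryptate donor and cAMP-d2 acceptor, each diluted 1/20 in conjugate and lysis buffer. EC50 values of the synthetic peptides were derived from the cAMP readout.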

Where [3] appears, read: first determination (n1), read-out: Primary assay EC50 Gluc-R (n1).
The mark [4] stands for this setting: second determination (n2), read-out: Primary assay EC50 Gluc-R (n2).
Where [5] appears, read: first determination (n1), read-out: Primary assay EC50 GIP-R (n1).
Setting [6] is: second determination (n2), read-out: Primary assay EC50 GIP-R (n2).
[7] abbreviates: mean of n1 and n2, read-out: INS1e assay EC50 Mean pM GLP-1R.
Where [8] appears, read: replicate n1, read-out: INS1e assay EC50 GLP-1R n1.
Setting [9] is: replicate n2, read-out: INS1e assay EC50 GLP-1R n2.

T1 sequence (P47871 26-477): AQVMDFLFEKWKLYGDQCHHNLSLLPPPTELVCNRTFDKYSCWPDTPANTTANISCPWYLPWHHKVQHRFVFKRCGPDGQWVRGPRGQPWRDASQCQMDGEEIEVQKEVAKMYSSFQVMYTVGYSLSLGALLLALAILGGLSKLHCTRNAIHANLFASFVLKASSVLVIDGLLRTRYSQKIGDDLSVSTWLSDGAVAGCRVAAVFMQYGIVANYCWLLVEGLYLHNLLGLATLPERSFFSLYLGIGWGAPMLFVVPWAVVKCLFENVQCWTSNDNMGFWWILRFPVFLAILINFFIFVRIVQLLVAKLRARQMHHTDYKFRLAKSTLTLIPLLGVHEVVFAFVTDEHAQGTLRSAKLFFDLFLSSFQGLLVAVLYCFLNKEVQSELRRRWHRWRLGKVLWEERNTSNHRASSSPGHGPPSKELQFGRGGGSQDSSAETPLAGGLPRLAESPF

The term EC50 denotes the concentration needed to bring the measured effect to its halfway point. As to `CC[C@H](C)[C@H](NC(=O)[C@](C)(Cc1ccccc1)NC(=O)[C@H](CCC(=O)O)NC(=O)[C@H](CCCCNC(=O)COCCOCCNC(=O)COCCOCCNC(=O)CC[C@H](NC(=O)CCCCCCCCCCCCCCC(=O)O)C(=O)O)NC(=O)[C@H](C)NC(=O)[C@H](C)NC(=O)[C@H](CCC(=O)O)NC(=O)CNC(=O)[C@H](CCC(=O)O)NC(=O)[C@H](CC(C)C)NC(=O)[C@](C)(Cc1ccccc1)NC(=O)[C@H](CO)NC(=O)[C@](C)(CO)NC(=O)[C@@H](NC(=O)[C@H](CC(=O)O)NC(=O)[C@H](CO)NC(=O)[C@@H](NC(=O)[C@](C)(Cc1ccccc1)NC(=O)[C@H](CO)NC(=O)CNC(=O)[C@H](CCC(=O)O)NC(=O)C(C)(C)NC(=O)[C@@H](N)Cc1c[nH]cn1)[C@@H](C)O)C(C)C)C(=O)N[C@@H](C)C(=O)N[C@@](C)(Cc1ccccc1)C(=O)N[C@H](C(=O)N[C@H](C(=O)N[C@@](C)(CCCCN)C(=O)NCC(=O)NCC(N)=O)C(C)C)C(C)C` [compound 109], the EC50 in assay [1] (setting [3]) was ≥ 26 nM; in assay [1] (setting [4]) it was ≥ 25.6 nM; in assay [2] (setting [5]), ≥ 26 nM; in assay [2] (setting [6]) it was ≥ 25.6 nM; at GLP-1R (INS1e assay) (setting [7]) it was 6330 pM; on GLP-1R (INS1e assay) (setting [8]) it was 8350 pM. Also, the concentration giving a half-maximal response (EC50) at GLP-1R (INS1e assay) (setting [9]) came out at 4320 pM.

For the molecule `CCCCCCCCCCCCCCCC(=O)N[C@@H](CCC(=O)NCCCC[C@H](NC(=O)[C@H](CCC(=O)O)NC(=O)[C@H](CC(C)C)NC(=O)[C@](C)(Cc1ccccc1)NC(=O)[C@H](CO)NC(=O)[C@](C)(CO)NC(=O)[C@@H](NC(=O)[C@H](CC(=O)O)NC(=O)[C@H](CO)NC(=O)[C@@H](NC(=O)[C@](C)(Cc1ccccc1)NC(=O)[C@H](CO)NC(=O)CNC(=O)[C@H](CCC(=O)O)NC(=O)C(C)(C)NC(=O)[C@@H](N)Cc1c[nH]cn1)[C@@H](C)O)C(C)C)C(=O)N[C@@H](CCC(=O)O)C(=O)N[C@@H](C)C(=O)N[C@@H](C)C(=O)N[C@@](C)(CCCCN)C(=O)N[C@@H](CCC(=O)O)C(=O)N[C@@](C)(Cc1ccccc1)C(=O)N[C@H](C(=O)N[C@@H](C)C(=O)N[C@@](C)(Cc1ccccc1)C(=O)N[C@H](C(=O)N[C@H](C(=O)N[C@@](C)(CCCCN)C(=O)NCC(=O)NCC(N)=O)C(C)C)C(C)C)[C@@H](C)CC)C(=O)O` [compound 84] (H-H[Aib]EGS[αMeF]TSDV[αMeS]S[αMeF]LEK([γGlu-Palmitoyl])EAA[αMeK]E[αMeF]IA[αMeF]VV[αMeK]GG-NH2), the EC50 is ≥ 27 nM in assay [1] (setting [3]); ≥ 27 nM in assay [1] (setting [4]); ≥ 27 nM in assay [2] (setting [5]); ≥ 27 nM in assay [2] (setting [6]); 560 pM at GLP-1R (INS1e assay) (setting [7]); 455 pM on GLP-1R (INS1e assay) (setting [8]). The half-maximal effective concentration (EC50) at GLP-1R (INS1e assay) (setting [9]) amounted to 665 pM.

For the molecule `CC[C@H](C)[C@H](NC(=O)[C@](C)(Cc1ccccc1)NC(=O)[C@H](CCC(=O)O)NC(=O)[C@](C)(CCCCN)NC(=O)[C@H](C)NC(=O)[C@H](C)NC(=O)[C@H](CCC(=O)O)NC(=O)[C@H](CCCCNC(=O)COCCOCCNC(=O)COCCOCCNC(=O)CC[C@H](NC(=O)CCCCCCCCCCCCCCCCC(=O)O)C(=O)O)NC(=O)[C@H](CCC(=O)O)NC(=O)[C@H](CC(C)C)NC(=O)[C@](C)(Cc1ccccc1)NC(=O)[C@H](CO)NC(=O)[C@](C)(CO)NC(=O)[C@@H](NC(=O)[C@H](CC(=O)O)NC(=O)[C@H](CO)NC(=O)[C@@H](NC(=O)[C@](C)(Cc1ccccc1)NC(=O)[C@H](CO)NC(=O)CNC(=O)[C@H](CCC(=O)O)NC(=O)C(C)(C)NC(=O)[C@@H](N)Cc1c[nH]cn1)[C@@H](C)O)C(C)C)C(=O)N[C@@H](C)C(=O)N[C@@](C)(Cc1ccccc1)C(=O)N[C@H](C(=O)N[C@H](C(=O)N[C@@](C)(CCCCN)C(=O)NCC(=O)NCC(N)=O)C(C)C)C(C)C` [compound 113] (H-H[Aib]EGS[αMeF]TSDV[αMeS]S[αMeF]LEK([AEEA-AEEA-γGlu-C18 diacid])EAA[αMeK]E[αMeF]IA[αMeF]VV[αMeK]GG-NH2; N-terminus assumed), the EC50 is ≥ 25 nM in assay [1] (setting [3]); ≥ 24.9 nM in assay [1] (setting [4]); ≥ 25 nM in assay [2] (setting [5]); ≥ 24.9 nM in assay [2] (setting [6]); 1040 pM at GLP-1R (INS1e assay) (setting [7]); 823 pM on GLP-1R (INS1e assay) (setting [8]). The EC50 at GLP-1R (INS1e assay) (setting [9]) is 1260 pM.
